Source: patent publication US5552421A, “Leukotriene biosynthesis inhibitors” (Boehringer Ingelheim Pharmaceuticals, Inc., priority 1995, dated 1996)
pIC50: −log10 of the molar value.

The molecules below were run on LTB4 biosynthesis in human polymorphonuclear leukocytes (PMNs) (assay: Inhibition of LTB4 biosynthesis in human polymorphonuclear leukocytes (PMNs)). Settings: Homo sapiens, Leukocyte, Table 1A, Esters; LTB4, A23187-stimulated human PMNs.
Format: cell-based
Protocol: Inhibition of LTB4, biosynthesis in human polymorphonuclear leukocytes (PMNs)
The inhibition of leukotriene biosynthesis is measured by determining whether and to what extent test compounds can inhibit LTB4 production from endogenous arachidonic acid in human peripheral blood leukocytes.
To 48-well tissue culture plates was added a solution of the test compound followed by addition of human polymorphonuclear leukocytes isolated from peripheral blood at a density of 1.5×10^6 cells/well. Culture plates were preincubated for fifteen minutes with shaking at 28° C. Cells were stimulated with calcium ionophore A23187 at a final concentration of 2.5 μM for an additional ten minutes. The reaction was terminated by the addition of an EGTA solution (10 mM final concentration)followed by centrifugation at 1500 rpm at 10° C. Supernatants were stored at -70° C. LTB4 levels were determined by RIA using a commercially available kit. Nonlinear regression analysis was used to calculate. IC50 values.
The following tables show % inhibition of LTB4 biosynthesis by compounds of the invention at test concentrations indicated, with the determined IC50 shown in μM.

SMILES	pIC50
CCOC(=O)C(CCc1ccccc1)Nc1nc2ccccc2s1 (stereo not drawn) [Compound 37]	6.28
CCOC(=O)C(C)(Cc1ccccc1)Nc1nc2ccccc2o1 (stereo not drawn) [Compound 39]	7.12

Same assay, conditions: Homo sapiens, Leukocyte, Table 2, Amides; values with <: see footnote d, Tables 1 and 1A

SMILES	pIC50
CON(C)C(=O)[C@H](CC1CCCCC1)Nc1nc2cc(C)ccc2o1 [Compound 45]	7.52
NC(=O)[C@H](Cc1ccccc1)Nc1nc2ccccc2s1 [Compound 40]	5.52
CN(C)C(=O)C(Cc1ccccc1)Nc1nc2ccccc2s1 (stereo not drawn) [Compound 41]	5.52
Cc1ccc2oc(N[C@@H](CC3CCCCC3)C(=O)N3CCCCC3)nc2c1 [Compound 46]	6.72

Same assay, conditions: Homo sapiens, Leukocyte, Table 3, Phenyl; values with <: see footnote d, Table 1

SMILES	pIC50
c1ccc(CC(Nc2nc3ccccc3o2)c2ccccc2)cc1 (stereo not drawn) [Compound 50]	> 6.00
CC(=O)Nc1ccc2oc(NC(CC3CCCCC3)c3ccccc3)nc2c1 (stereo not drawn) [Compound 61]	7.12
CNC(=O)Nc1ccc2oc(NC(CC3CCCCC3)c3ccccc3)nc2c1 (stereo not drawn) [Compound 62]	> 6.00
O=C(O)c1ccc2nc(NC(CC3CCCCC3)c3ccccc3)sc2c1 (stereo not drawn) [Compound 66]	6.66
CC(C)c1ccc2oc(NC(CC3CCCCC3)c3ccccc3)nc2c1 (stereo not drawn) [Compound 54]	8.20
CS(=O)(=O)Nc1ccc2oc(NC(CC3CCCCC3)c3ccccc3)nc2c1 (stereo not drawn) [Compound 60]	6.80
CN(C)C(=O)c1ccc2oc(NC(CC3CCCCC3)c3ccccc3)nc2c1 (stereo not drawn) [Compound 65]	6.77

Same assay, conditions: Homo sapiens, Leukocyte, Table 4, Pyridyl; values with <: see footnote d, Table 1

SMILES	pIC50
CC(C)c1ccc2oc(NC(Cc3ccc(Cl)cc3)c3ccccn3)nc2c1 (stereo not drawn) [Compound 98]	7.54
Clc1ccc(CC(Nc2nc3cc(Cl)ccc3o2)c2ccccn2)cc1 (stereo not drawn) [Compound 99]	7.85
COC(=O)c1ccc2oc(NC(CC3CCCCC3)c3ccccn3)nc2c1 (stereo not drawn) [Compound 92]	7.92
CC(C)c1ccc2oc(NC(Cc3cccc(Cl)c3)c3ccccn3)nc2c1 (stereo not drawn) [Compound 100]	8.30
Clc1ccc2oc(NC(CC3CCCCC3)c3ccccn3)nc2c1 (stereo not drawn) [Compound 91]	8.70
COC(=O)c1ccc2oc(NC(Cc3ccc(F)cc3)c3ccccn3)nc2c1 (stereo not drawn) [Compound 101]	7.57
Fc1ccc2oc(NC(Cc3cccc(Cl)c3)c3ccccn3)nc2c1 (stereo not drawn) [Compound 105]	> 7.52
COc1ccc2oc(NC(Cc3ccc(F)cc3)c3ccccn3)nc2c1 (stereo not drawn) [Compound 114]	7.96
Clc1ccc2oc(NC(CC3CCCCC3)c3cccnc3)nc2c1 (stereo not drawn) [Compound 86]	7.64
O=[N+]([O-])c1ccc2oc(NC(CC3CCCCC3)c3cccnc3)nc2c1 (stereo not drawn) [Compound 85]	7.62
Cc1ccc2oc(NC(CC3CCCCC3)c3cccnc3)nc2c1 (stereo not drawn) [Compound 82]	7.62
CC(C)c1ccc2oc(NC(Cc3ccc(F)cc3)c3ccccn3)nc2c1 (stereo not drawn) [Compound 94]	7.92
Fc1ccc(CC(Nc2nc3cc(Cl)ccc3o2)c2ccccn2)cc1 (stereo not drawn) [Compound 93]	7.72

Same assay, conditions: Homo sapiens, Leukocyte, Table 6, Methyloxadiazole; values with <: see footnote d, Table 1

SMILES	pIC50
CCc1ccc2sc(N[C@@H](Cc3ccccc3)c3nc(C)no3)nc2c1 [Compound 123]	> 6.00
Cc1noc(C(Cc2ccccc2)Nc2nc3ccccc3s2)n1 (stereo not drawn) [Compound 121]	5.89

Same assay, conditions: Homo sapiens, Leukocyte, Table 8, Miscellaneous Acyclic; values with <: see footnote d, Table 1

SMILES	pIC50
CSCC(Cc1csc(C)n1)Nc1nc2cc(C(C)C)ccc2o1 (stereo not drawn) [Compound 145]	> 7.00
CC(C)c1ccc2oc(NC(Cc3ccccc3)CS(C)(=O)=O)nc2c1 (stereo not drawn) [Compound 146]	> 7.52
CCOC[C@H](Cc1ccccc1)Nc1nc2cc(Cl)ccc2o1 [Compound 135]	7.54
CC(C)c1ccc2oc(N[C@H](CNC(N)=O)Cc3ccccc3)nc2c1 [Compound 153]	> 6.52
COCC(Cc1ccc(OC)cc1)Nc1nc2cc(C(C)C)ccc2o1 (stereo not drawn) [Compound 139]	> 7.52
CCOC[C@H](Cc1ccccc1)Nc1nc2cc(C(C)C)ccc2o1 [Compound 133]	7.80
COCC(Cc1ccc(F)cc1)Nc1nc2cc(C(C)C)ccc2o1 (stereo not drawn) [Compound 136]	> 7.52
COCC(Cc1cccnc1)Nc1nc2cc(C(C)C)ccc2o1 (stereo not drawn) [Compound 140]	> 6.00
CCOCC(Cc1ccc(F)cc1)Nc1nc2cc(C(C)C)ccc2o1 (stereo not drawn) [Compound 137]	> 7.52

Same assay, conditions: Homo sapiens, Leukocyte, Table 9, Miscellaneous Heterocycle; values with <: see footnote d, Table 1

SMILES	pIC50
Fc1ccc(CC(Nc2nc3cc(Cl)ccc3o2)c2ncc[nH]2)cc1 (stereo not drawn) [Compound 155]	6.54
CC(C)c1ccc2oc(NC(Cc3cccc(Cl)c3)c3nccs3)nc2c1 (stereo not drawn) [Compound 159]	> 7.00
Cc1nc(CC(Nc2nc3cc(C(C)C)ccc3o2)c2ncc[nH]2)cs1 (stereo not drawn) [Compound 157]	> 6.00
CC(C)c1ccc2oc(NC(Cc3cccc(Cl)c3)c3ncc[nH]3)nc2c1 (stereo not drawn) [Compound 158]	> 7.52
Cc1csc(C(Cc2cccc(Cl)c2)Nc2nc3cc(C(C)C)ccc3o2)n1 (stereo not drawn) [Compound 160]	> 7.52

Same assay, conditions: Homo sapiens, Leukocyte, Table 10, Oxazolopyridines; values with <: see footnote d, Table 1

SMILES	pIC50
Cc1ccc2oc(NC(CC3CCCCC3)c3ccccc3)nc2n1 (stereo not drawn) [Compound 164]	7.55
c1ccc(C(CC2CCCCC2)Nc2nc3cccnc3o2)cc1 (stereo not drawn) [Compound 170]	7.68
COC(=O)[C@H](CC1CCCCC1)Nc1nc2ncccc2o1 [Compound 162]	6.68

Same assay, conditions: Homo sapiens, Leukocyte, Table 11, Thiazolopyridines; values with <: see footnote d, Table 1

SMILES	pIC50
Cc1cnc2nc(NC(Cc3ccc(F)cc3)c3ccccn3)sc2c1 (stereo not drawn) [Compound 192]	> 6.52
Cc1cnc2nc(NC(CC3CCCCC3)c3ccccc3)sc2c1 (stereo not drawn) [Compound 191]	> 6.00

Same assay, conditions: Homo sapiens, Leukocyte, Table 14, Miscellaneous Compounds; values with <: see footnote d, Table 1

SMILES	pIC50
COC(=O)[C@H](Cc1cn(C)cn1)Nc1nc2cc(C(C)C)ccc2o1 [Compound 201]	> 6.00
CC(C)c1ccc2oc(NC(Cc3cccc(Cl)c3)c3nccn3C)nc2c1 (stereo not drawn) [Compound 202]	> 7.00

Same assay, conditions: Leukocyte; Table 1, Esters; LTB4, A23187-stimulated human PMNs; values with < (footnote d): greater than 50% (504 [sic]) inhibition at this concentration, IC50 not characterized further

SMILES	pIC50
CCOC(=O)[C@H](CC1CCCCC1)Nc1nc2cc(CC)ccc2s1 [Compound 15]	7.57
CCOC(=O)[C@H](Cc1ccccc1)Nc1nc2ccc(C(C)C)cc2o1 [Compound 20]	6.66
CCOC(=O)C(Cc1ccc(Cl)cc1)Nc1nc2ccccc2s1 (stereo not drawn) [Compound 1]	6.70
CCOC(=O)[C@H](CC1CCCCC1)Nc1nc2ccccc2s1 [Compound 16]	8.22
CCOC(=O)[C@H](Cc1ccccc1)Nc1nc2ccccc2o1 [Compound 17]	6.82
CCOC(=O)[C@@H](Cc1ccccc1)Nc1nc2ccccc2o1 [Compound 18]	5.82
COC(=O)[C@H](CC1CCCCC1)Nc1nc2cc(C)ccc2o1 [Compound 24]	8.77
CCCCc1ccc2nc(NC(Cc3ccc(Cl)cc3)C(=O)OCC)sc2c1 (stereo not drawn) [Compound 11]	6.77
CCOC(=O)C(Cc1nccs1)Nc1nc2cc(Cl)ccc2o1 (stereo not drawn) [Compound 28]	> 6.52
CCOC(=O)C(Cc1csc(C)n1)Nc1nc2cc(OC)ccc2o1 (stereo not drawn) [Compound 27]	> 6.52
CCOC(=O)C(Cc1ccc(Cl)cc1)Nc1nc2ccc(C(C)C)cc2s1 (racemic) [Compound 7, DL-N-(6-Isopropylbenzothiazol-2-yl)-4-chlorophenylalanine ethyl ester]	6.48
COC(=O)[C@H](CC1CCCCC1)Nc1nc2cc(C(C)C)ccc2o1 [Compound 23]	9.00

Same assay, conditions: Table 4, Pyridyl; values with <: see footnote d, Table 1

SMILES	pIC50
Cc1ccc2oc(NC(CC3CCCCC3)c3ccccn3)nc2c1 (single isomer, unassigned) [Compound 88]	7.35
FC(F)(F)c1ccc2oc(NC(CC3CCCCC3)c3ccccn3)nc2c1 (stereo not drawn) [Compound 108]	9.00
Clc1ccc2sc(NC(CC3CCCCC3)c3ccccn3)nc2c1 (stereo not drawn) [Compound 102]	8.40
Fc1ccc(CC(Nc2nc3cc(Cl)ccc3o2)c2ccccn2)cc1 (single isomer, unassigned) [Compound 118]	8.00
Cc1ccc2oc(NC(CC3CCCCC3)c3cccnc3)nc2c1 (single isomer, unassigned) [Compound 89]	7.80
